Results taken from ChEMBL document CHEMBL1955734, “JFCR39, a panel of 39 human cancer cell lines, and its application in the discovery and development of anticancer drugs” (Bioorg Med Chem, 2012).

Key:
DMS-114 = assay: Growth inhibition of human DMS114 cells; assay type: functional, cell-based
SF-268 = assay: Growth inhibition of human SF268 cells; assay type: functional, cell-based
HCT-116 = assay: Growth inhibition of human HCT116 cells; assay type: functional, cell-based
U-251 = assay: Growth inhibition of human U251 cells; assay type: functional, cell-based
OVCAR-4 = assay: Growth inhibition of human OVCAR4 cells; assay type: functional, cell-based
[1] = Growth inhibition of human NCI-H483 cells; assay type: functional, cell-based
MKN-45 = assay: Growth inhibition of human MKN45 cells; assay type: functional, cell-based
DMS-273 = assay: Growth inhibition of human DMS273 cells; assay type: functional, cell-based
OVCAR-5 = assay: Growth inhibition of human OVCAR5 cells; assay type: functional, cell-based
[2] = Growth inhibition of human MKN1 cells; assay type: functional, cell-based; conditions: MKN-1
LOX IMVI = assay: Growth inhibition of human LOXIMVI cells; assay type: functional, cell-based
MCF7 = assay: Growth inhibition of human MCF7 cells; assay type: functional, cell-based
NCI-H23 = assay: Growth inhibition of human NCI-H23 cells; assay type: functional, cell-based
MKN-28 = assay: Growth inhibition of human MKN28 cells; assay type: functional, cell-based
OVCAR-3 = assay: Growth inhibition of human OVCAR3 cells; assay type: functional, cell-based
SF-295 = assay: Growth inhibition of human SF295 cells; assay type: functional, cell-based
OVCAR-8 = assay: Growth inhibition of human OVCAR8 cells; assay type: functional, cell-based
[3] = Growth inhibition of human HBC4 cells; assay type: functional, cell-based
[4] = Growth inhibition of human HBC5 cells; assay type: functional, cell-based
MKN-74 = assay: Growth inhibition of human MKN74 cells; assay type: functional, cell-based
[5] = Growth inhibition of human BSY1 cells; assay type: functional, cell-based; conditions: BSY-1
SNB-78 = assay: Growth inhibition of human SNB78 cells; assay type: functional, cell-based
[6] = Growth inhibition of human RXF631L cells; assay type: functional; conditions: RXF 631
ACHN = assay: Growth inhibition of human ACHN cells; assay type: functional, cell-based
PC-3 = assay: Growth inhibition of human PC3 cells; assay type: functional, cell-based
SF-539 = assay: Growth inhibition of human SF539 cells; assay type: functional, cell-based
St-4 = assay: Growth inhibition of human St-4 cells; assay type: functional, cell-based
HCT-15 = assay: Growth inhibition of human HCT15 cells; assay type: functional, cell-based
KM12 = assay: Growth inhibition of human KM12 cells; assay type: functional, cell-based
NCI-H522 = assay: Growth inhibition of human NCI-H522 cells; assay type: functional, cell-based
MDA-MB-231 = assay: Growth inhibition of human MDA-MB-231 cells; assay type: functional, cell-based
SNB-75 = assay: Growth inhibition of human SNB75 cells; assay type: functional, cell-based
NCI-H226 = assay: Growth inhibition of human NCI-H226 cells; assay type: functional, cell-based
HCC 2998 = assay: Growth inhibition of human HCC2998 cells; assay type: functional, cell-based
A549 = assay: Growth inhibition of human A549 cells; assay type: functional, cell-based
SK-OV-3 = assay: Growth inhibition of human SKOV3 cells; assay type: functional, cell-based
HT-29 = assay: Growth inhibition of human HT-29 cells; assay type: functional, cell-based
MKN-7 = assay: Growth inhibition of human MKN7 cells; assay type: functional, cell-based
DU-145 = assay: Growth inhibition of human DU145 cells; assay type: functional, cell-based
[7] = biological target: Telomerase reverse transcriptase (Homo sapiens, UniProt O14746); assay: Inhibition of telomerase
Chain of Telomerase reverse transcriptase (O14746 whole entry): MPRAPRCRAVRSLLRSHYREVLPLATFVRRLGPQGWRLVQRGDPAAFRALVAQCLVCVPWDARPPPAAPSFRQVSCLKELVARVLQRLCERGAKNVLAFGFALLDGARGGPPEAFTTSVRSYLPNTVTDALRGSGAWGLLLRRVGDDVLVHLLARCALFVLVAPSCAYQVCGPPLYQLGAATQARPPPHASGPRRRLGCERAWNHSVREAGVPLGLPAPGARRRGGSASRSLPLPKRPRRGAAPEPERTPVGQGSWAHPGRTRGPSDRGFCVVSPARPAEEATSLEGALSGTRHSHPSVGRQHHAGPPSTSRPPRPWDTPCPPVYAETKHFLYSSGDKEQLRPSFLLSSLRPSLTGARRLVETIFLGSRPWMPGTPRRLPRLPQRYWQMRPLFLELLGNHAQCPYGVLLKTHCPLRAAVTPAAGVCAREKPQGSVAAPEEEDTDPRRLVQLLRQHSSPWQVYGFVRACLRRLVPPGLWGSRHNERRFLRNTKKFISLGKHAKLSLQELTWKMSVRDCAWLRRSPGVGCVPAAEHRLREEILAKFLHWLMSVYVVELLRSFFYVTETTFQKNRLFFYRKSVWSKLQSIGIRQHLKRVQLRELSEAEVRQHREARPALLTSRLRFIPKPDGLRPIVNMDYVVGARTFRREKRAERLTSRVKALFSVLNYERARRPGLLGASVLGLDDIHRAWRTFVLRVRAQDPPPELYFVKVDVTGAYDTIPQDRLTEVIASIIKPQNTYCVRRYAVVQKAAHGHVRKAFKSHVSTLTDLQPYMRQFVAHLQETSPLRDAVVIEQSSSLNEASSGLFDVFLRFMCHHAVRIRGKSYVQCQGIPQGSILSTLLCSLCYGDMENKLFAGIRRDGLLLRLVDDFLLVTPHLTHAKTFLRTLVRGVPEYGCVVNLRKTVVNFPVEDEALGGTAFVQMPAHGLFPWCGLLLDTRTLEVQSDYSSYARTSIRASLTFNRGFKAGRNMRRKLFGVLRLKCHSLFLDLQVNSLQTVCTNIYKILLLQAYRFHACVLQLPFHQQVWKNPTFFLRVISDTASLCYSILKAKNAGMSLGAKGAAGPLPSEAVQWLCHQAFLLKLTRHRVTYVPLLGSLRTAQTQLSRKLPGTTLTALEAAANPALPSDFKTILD

SMILES: Cn1c(=O)n(-c2ccc(C(C)(C)C#N)cc2)c2c3cc(-c4cnc5ccccc5c4)ccc3ncc21 [DACTOLISIB]
- GI50 (DMS-114): 4.07 nM
- GI50 (SF-268): 12 nM
- GI50 (HCT-116): 24.6 nM
- GI50 (U-251): 21.9 nM
- GI50 (OVCAR-4): 2.63 nM
- GI50 [1]: 7.76 nM
- GI50 (MKN-45): 4.57 nM
- GI50 (DMS-273): 15.8 nM
- GI50 (OVCAR-5): 26.9 nM
- GI50 [2]: 3.89 nM
- GI50 (LOX IMVI): 2.19 nM
- GI50 (MCF7): 6.92 nM
- GI50 (NCI-H23): 22.9 nM
- GI50 (MKN-28): 85.1 nM
- GI50 (OVCAR-3): 6.76 nM
- GI50 (SF-295): 4.9 nM
- GI50 (OVCAR-8): 14.4 nM
- GI50 [3]: 2.46 nM
- GI50 [4]: 13.5 nM
- GI50 (MKN-74): 38 nM
- GI50 [5]: 3.31 nM
- GI50 (SNB-78): 2.24 nM
- GI50 [6]: 6.17 nM
- GI50 (ACHN): 11.2 nM
- GI50 (PC-3): 2.19 nM
- GI50 (SF-539): 2.57 nM
- GI50 (St-4): 33.9 nM
- GI50 (HCT-15): 9.33 nM
- GI50 (KM12): 28.8 nM
- GI50 (NCI-H522): 3.55 nM
- GI50 (MDA-MB-231): 8.13 nM
- GI50 (SNB-75): 2.63 nM
- GI50 (NCI-H226): 3.63 nM
- GI50 (HCC 2998): 8.91 nM
- GI50 (A549): 8.51 nM
- GI50 (SK-OV-3): 3.89 nM
- GI50 (HT-29): 17.8 nM
- GI50 (MKN-7): 20.9 nM
- GI50 (DU-145): 6.92 nM

SMILES: CCn1c(=O)/c(=C2\Sc3ccccc3N2C)s/c1=C\c1scc(C)[n+]1CC
- IC50 [7]: 2000 nM

SMILES: CCn1c(=O)/c(=C2\Sc3ccccc3N2C)s/c1=C\c1cccc[n+]1CC
- IC50 [7]: 5000 nM
